# System: Botrytis cinerea
# Assay: Activity against gray mold on bell pepper leaves caused by Botrytis cinerea, protective application (also comparative experiment)
# Assay type: in vivo
# Conditions: 5 days, untreated 90
# Protocol: The active compounds were prepared as a stock solution comprising 25 mg of active compound which was made up to 10 ml using a mixture of acetone and/or dimethyl sulfoxide and the emulsifier Uniperol® EL (wetting agent having an emulsifying and dispersing action based on ethoxylated alkylphenols) in a volume ratio of solvent/emulsifier of 99:1. The mixture was then made up to 100 ml with water. This stock solution was diluted with the solvent/emulsifier/water mixture described to give the desired concentration of active compounds.
# Activity Against Gray Mold on Bell Pepper Leaves Caused by Botrytis cinerea, Protective Application
# Bell pepper seedlings of the cultivar “Neusiedler Ideal Elite” were, after 2-3 leaves were well developed, sprayed to runoff point with an aqueous suspension having the concentration of active compounds stated below. The next day, the treated plants were inoculated with a spore suspension of Botrytis cinerea which comprised 1.7×10^6 spores/ml in a 2% strength aqueous biomalt solution. The test plants were then placed into a dark climatized chamber at 22-24° C. and high atmospheric humidity. After 5 days, the extent of the fungal infection on the leaves could be determined visually in %.
# Comparative Experiment—Activity Against Gray Mold on Bell Pepper Leaves Caused by Botrytis cinerea, Protective Application
# Compound No. 47 of Table 1 from EP-A 0 589 301 was compared to compounds 9.17 and 9.20 according to the invention from Table 9.
row,Structure (SMILES),Infection in % at 250 ppm at BOTRCI P1 [%]
1,Cc1nn(C)cc1C(=O)Nc1ccccc1-c1ccc(F)c(Cl)c1 [9.17],5
2,Cc1nn(C)cc1C(=O)Nc1ccccc1-c1ccc(F)cc1F [9.20],7
3,"Cc1nn(C)cc1C(=O)Nc1ccccc1-c1ccc(F)cc1 [Comp. 47, reference compound]",60
